Laboratory results as given in US10689367B2, “Triazole pyridyl compounds as agonists of the APJ receptor” (AMGEN INC., priority 2016, dated 2020).
pEC50: −log10 of the molar value.

biological target: human APJ receptor (Homo sapiens (Human), UniProt P35414); experiment: [35S]GTPγS binding assay on membranes from CHO cells stably expressing human APJ receptor; format: biochemical; settings: membranes of CHO cells stably expressing human APJ receptor, read-out: Activity hAPJ SPA EC50 IP
Method in brief: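 [35S]GTPγS binding measured on membranes from CHO cells stably expressing FLAG-tagged human APJ, with GDP, MgCl2 and NaCl levels optimized beforehand. Incubation 90 min at RT, imager read-out; EC50 from non-linear regression, averaged over several independent experiments.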

Chain of human APJ receptor (P35414 whole entry): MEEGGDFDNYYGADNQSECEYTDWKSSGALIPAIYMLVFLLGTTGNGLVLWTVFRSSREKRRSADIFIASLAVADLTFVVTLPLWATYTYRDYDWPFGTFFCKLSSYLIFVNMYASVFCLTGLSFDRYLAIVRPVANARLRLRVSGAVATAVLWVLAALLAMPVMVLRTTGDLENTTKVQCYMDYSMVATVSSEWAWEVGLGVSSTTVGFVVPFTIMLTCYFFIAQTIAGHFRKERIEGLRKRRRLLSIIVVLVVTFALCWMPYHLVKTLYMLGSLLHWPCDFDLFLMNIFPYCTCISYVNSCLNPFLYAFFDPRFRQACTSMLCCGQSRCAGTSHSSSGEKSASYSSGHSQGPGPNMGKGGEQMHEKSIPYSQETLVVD

Going from `COc1cccc(-c2nnc(NS(=O)(=O)[C@@H](C)[C@H](OC)c3ncc(Cl)cn3)n2C[C@H]2CCC(C)(C)O2)n1` (single isomer, unassigned) [Example 290.0, (1R,2S)-1-(5-chloropyrimidin-2-yl)-N-(4-(((R)-5,5-dimethyltetrahydrofuran-2-yl)methyl)-5-(6-methoxypyridin-2-yl)-4H-1,2,4-triazol-3-yl)-1-methoxypropane-2-sulfonamide or (1R,2S)-1-(5-chloropyrimidin-2-yl)-N-(4-(((S)-5,5-dimethyltetrahydrofuran-2-yl)methyl)-5-(6-methoxypyridin-2-yl)-4H-1,2,4-triazol-3-yl)-1-methoxypropane-2-sulfonamide] to `COc1cccc(-c2nnc(NS(=O)(=O)[C@@H](C)[C@H](OC)c3ncc(Cl)cn3)n2C[C@@H]2CCC[C@H](C)O2)n1` (single isomer, unassigned) [Example 305.0], the pEC50 rises from 7.82 to 8.40 (0.58 log units). The second is the more potent here.

Going from `COc1cccc(-c2nnc(NS(=O)(=O)[C@@H](C)[C@H](C)c3ncc(Cl)cn3)n2[C@H](C)c2csnn2)n1` (single isomer, unassigned) [Example 295.0, (2S,3R)-N-(4-((R)-1-(1,2,3-thiadiazol-4-yl)ethyl)-5-(6-methoxypyridin-2-yl)-4H-1,2,4-triazol-3-yl)-3-(5-chloropyrimidin-2-yl)butane-2-sulfonamide or (2S,3R)-N-(4-((S)-1-(1,2,3-thiadiazol-4-yl)ethyl)-5-(6-methoxypyridin-2-yl)-4H-1,2,4-triazol-3-yl)-3-(5-chloropyrimidin-2-yl)butane-2-sulfonamide] to `COc1cccc(-c2nnc(NS(=O)(=O)[C@@H](C)[C@H](OC)c3ncc(Cl)cn3)n2[C@H](C)c2cncnc2)n1` (single isomer, unassigned) [Example 336.0, (1R,2S)-1-(5-chloropyrimidin-2-yl)-1-methoxy-N-(5-(6-methoxypyridin-2-yl)-4-((R)-1-(pyrimidin-5-yl)ethyl)-4H-1,2,4-triazol-3-yl)propane-2-sulfonamide or (1R,2S)-1-(5-chloropyrimidin-2-yl)-1-methoxy-N-(5-(6-methoxypyridin-2-yl)-4-((S)-1-(pyrimidin-5-yl)ethyl)-4H-1,2,4-triazol-3-yl)propane-2-sulfonamide], the pEC50 falls from 8.19 to 7.82 (0.37 log units).

`COc1cccc(-c2nnc(NS(=O)(=O)[C@@H](C)[C@H](C)c3ncc(Cl)cn3)n2[C@H](C)c2csnn2)n1` (single isomer, unassigned) [Example 296.0, (2S,3R)-N-(4-((R)-1-(1,2,3-thiadiazol-4-yl)ethyl)-5-(6-methoxypyridin-2-yl)-4H-1,2,4-triazol-3-yl)-3-(5-chloropyrimidin-2-yl)butane-2-sulfonamide or (2S,3R)-N-(4-((S)-1-(1,2,3-thiadiazol-4-yl)ethyl)-5-(6-methoxypyridin-2-yl)-4H-1,2,4-triazol-3-yl)-3-(5-chloropyrimidin-2-yl)butane-2-sulfonamide] and `COc1cccc(-c2nnc(NS(=O)(=O)[C@@H](C)[C@H](OC)c3ncc(Cl)cn3)n2[C@H](C)c2cncnc2)n1` (single isomer, unassigned) [Example 337.0, (1R,2S)-1-(5-chloropyrimidin-2-yl)-1-methoxy-N-(5-(6-methoxypyridin-2-yl)-4-((R)-1-(pyrimidin-5-yl)ethyl)-4H-1,2,4-triazol-3-yl)propane-2-sulfonamide or (1R,2S)-1-(5-chloropyrimidin-2-yl)-1-methoxy-N-(5-(6-methoxypyridin-2-yl)-4-((S)-1-(pyrimidin-5-yl)ethyl)-4H-1,2,4-triazol-3-yl)propane-2-sulfonamide] are within 0.2 log units of each other in pEC50: 8.74 for the first, 8.85 for the second.

`COc1cccc(-c2nnc(NS(=O)(=O)[C@@H](C)[C@@H](OC(C)C)c3ncc(C)cn3)n2C[C@H]2CCCCO2)n1` (single isomer, unassigned) [Example 300.0, (1S,2S)-1-isopropoxy-N-(5-(6-methoxypyridin-2-yl)-4-(((R)-tetrahydro-2H-pyran-2-yl)methyl)-4H-1,2,4-triazol-3-yl)-1-(5-methylpyrimidin-2-yl)propane-2-sulfonamide or (1S,2S)-1-isopropoxy-N-(5-(6-methoxypyridin-2-yl)-4-(((S)-tetrahydro-2H-pyran-2-yl)methyl)-4H-1,2,4-triazol-3-yl)-1-(5-methylpyrimidin-2-yl)propane-2-sulfonamide] and `COc1cccc(-c2nnc(NS(=O)(=O)[C@@H](C)[C@@H](OC(C)C)c3ncc(C)cn3)n2[C@H](C)[C@@H]2CCCCO2)n1` (single isomer, unassigned) [Example 321.0] are within 0.2 log units of each other in pEC50: 7.85 for the first, 7.92 for the second.

Compared with `COc1cccc(-c2nnc(NS(=O)(=O)[C@@H](C)[C@@H](OC(C)C)c3ncc(C)cn3)n2C[C@H]2CCCCO2)n1` (single isomer, unassigned) [Example 301.0, (1S,2S)-1-isopropoxy-N-(5-(6-methoxypyridin-2-yl)-4-(((R)-tetrahydro-2H-pyran-2-yl)methyl)-4H-1,2,4-triazol-3-yl)-1-(5-methylpyrimidin-2-yl)propane-2-sulfonamide or (1S,2S)-1-isopropoxy-N-(5-(6-methoxypyridin-2-yl)-4-(((S)-tetrahydro-2H-pyran-2-yl)methyl)-4H-1,2,4-triazol-3-yl)-1-(5-methylpyrimidin-2-yl)propane-2-sulfonamide], `COc1cccc(-c2nnc(NS(=O)(=O)[C@@H](C)[C@@H](OC(C)C)c3ncc(C)cn3)n2[C@H](C)[C@@H]2CCCCO2)n1` (single isomer, unassigned) [Example 322.0] is 0.56 log units higher in pEC50: 8.36 for the first, 8.92 for the second. The second is the more potent here.

Going from `COc1cccc(-c2nnc(NS(=O)(=O)[C@@H](C)[C@H](OC)c3ncc(Cl)cn3)n2C[C@@H]2CCC[C@H](C)O2)n1` (single isomer, unassigned) [Example 306.0] to `COc1cccc(-c2nnc(NS(=O)(=O)[C@@H](C)[C@H](OC)c3ncc(Cl)cn3)n2[C@H](C)[C@@H]2CCCCO2)n1` (single isomer, unassigned) [Example 317.0], the pEC50 rises from 7.46 to 9.15 (1.69 log units).

Going from `COc1cccc(-c2nnc(NS(=O)(=O)[C@@H](C)[C@H](OC)c3ncc(Cl)cn3)n2C[C@@H]2CCC[C@H](C)O2)n1` (single isomer, unassigned) [Example 307.0] to `COc1cccc(-c2nnc(NS(=O)(=O)[C@@H](C)[C@H](OC)c3ncc(Cl)cn3)n2[C@H](C)[C@@H]2CCCCO2)n1` (single isomer, unassigned) [Example 318.0], the pEC50 rises from 8.06 to 8.62 (0.56 log units).

Going from `COc1cccc(-c2nnc(NS(=O)(=O)[C@@H](C)[C@H](OC)c3ncc(Cl)cn3)n2C[C@@H]2CCC[C@H](C)O2)n1` (single isomer, unassigned) [Example 308.0] to `CC[C@H]([C@@H]1CCCCO1)n1c(NS(=O)(=O)[C@@H](C)[C@H](OC)c2ncc(Cl)cn2)nnc1-c1cccc(OC)n1` (single isomer, unassigned) [Example 325.0], the pEC50 rises from 8.72 to 9.48 (0.76 log units). The second is the more potent here.

Going from `COc1cccc(-c2nnc(NS(=O)(=O)[C@@H](C)[C@@H](OC(C)C)c3ncc(C)cn3)n2[C@H](C)[C@@H]2CCCCO2)n1` (single isomer, unassigned) [Example 323.0] to `CC[C@H]([C@@H]1CCCCO1)n1c(NS(=O)(=O)[C@@H](C)[C@H](OC)c2ncc(C)cn2)nnc1-c1cccc(OC)n1` (single isomer, unassigned) [Example 329.0], the pEC50 falls from 9.18 to 8.85 (0.33 log units). The first is the more potent here.

`COc1cccc(-c2nnc(NS(=O)(=O)[C@@H](C)[C@@H](OC(C)C)c3ncc(C)cn3)n2[C@H](C)[C@@H]2CCCCO2)n1` (single isomer, unassigned) [Example 324.0] and `CC[C@H]([C@@H]1CCCCO1)n1c(NS(=O)(=O)[C@@H](C)[C@H](OC)c2ncc(C)cn2)nnc1-c1cccc(OC)n1` (single isomer, unassigned) [Example 330.0] are within 0.2 log units of each other in pEC50: 9.46 for the first, 9.64 for the second.

Going from `CC[C@H]([C@@H]1CCCCO1)n1c(NS(=O)(=O)[C@@H](C)[C@H](OC)c2ncc(Cl)cn2)nnc1-c1cccc(OC)n1` (single isomer, unassigned) [Example 326.0] to `CC[C@H]([C@@H]1CCCCO1)n1c(NS(=O)(=O)[C@@H](C)[C@H](OC)c2ncc(C)cn2)nnc1-c1cccc(OC)n1` (single isomer, unassigned) [Example 331.0], the pEC50 falls from 9.85 to 9.22 (0.63 log units).

`CC[C@H]([C@@H]1CCCCO1)n1c(NS(=O)(=O)[C@@H](C)[C@H](OC)c2ncc(Cl)cn2)nnc1-c1cccc(OC)n1` (single isomer, unassigned) [Example 327.0] and `CC[C@H]([C@@H]1CCCCO1)n1c(NS(=O)(=O)[C@@H](C)[C@H](OC)c2ncc(C)cn2)nnc1-c1cccc(OC)n1` (single isomer, unassigned) [Example 332.0] are within 0.2 log units of each other in pEC50: 9.96 for the first, 9.92 for the second.

Compared with `CC[C@H]([C@@H]1CCCCO1)n1c(NS(=O)(=O)[C@@H](C)[C@H](OC)c2ncc(Cl)cn2)nnc1-c1cccc(OC)n1` (single isomer, unassigned) [Example 328.0], `CC[C@H]([C@@H]1CCCCO1)n1c(NS(=O)(=O)[C@@H](C)[C@H](OC)c2ncc(C)cn2)nnc1-c1cncc(C)c1` (single isomer, unassigned) [Example 333.0] is 2.08 log units lower in pEC50: 10.19 for the first, 8.11 for the second.

Going from `CC[C@H]([C@@H]1CCCCO1)n1c(NS(=O)(=O)[C@@H](C)[C@H](OC)c2ncc(C)cn2)nnc1-c1cncc(C)c1` (single isomer, unassigned) [Example 334.0] to `COc1cccc(-c2nnc(NS(=O)(=O)[C@@H](C)[C@H](OC)c3ncc(Cl)cn3)n2[C@H](C)c2cnn(C)c2)n1` (single isomer, unassigned) [Example 338.0, (1R,2S)-1-(5-chloropyrimidin-2-yl)-1-methoxy-N-(5-(6-methoxypyridin-2-yl)-4-((R)-1-(1-methyl-1H-pyrazol-4-yl)ethyl)-4H-1,2,4-triazol-3-yl)propane-2-sulfonamide or (1R,2S)-1-(5-chloropyrimidin-2-yl)-1-methoxy-N-(5-(6-methoxypyridin-2-yl)-4-((S)-1-(1-methyl-1H-pyrazol-4-yl)ethyl)-4H-1,2,4-triazol-3-yl)propane-2-sulfonamide], the pEC50 rises from 7.54 to 9.25 (1.71 log units). The second is the more potent here.

Molecule `CC[C@H]([C@@H]1CCCCO1)n1c(NS(=O)(=O)[C@@H](C)[C@H](OC)c2ncc(C)cn2)nnc1-c1cncc(C)c1` (single isomer, unassigned) [Example 335.0] has a pEC50 of 7.85.
